From US20070104743A1, “Formulations of fispemifene” (HORMOS MEDICAL LTD., priority 2005, published 2007) come the findings set out here.

One data set in a line: Solubility in water. The format is physicochemical.
The nature of data set [1]: Serum concentration of fispemifene in monkeys after administration in two different vehicles. Particulars: two female Cynomolgus monkeys, single oral dose 500 mg/kg, LC-MS/MS. In kind it is in vivo. As for the experimental part:
Serum concentration of fispemifene in monkeys after administration of fispemifene in two different vehicles
A pilot study on exposure of fispemifene in two female Cynomolgus monkeys ( #05084 and #06170) was carried out. Fispemifene was administered by single oral dosing of 500 mg/kg in two different vehicles, 0.5% carboxymethyl cellulose in water (CMC), and in corn oil. Blood samples were collected 0, 1, 2, 4, 6, 8, 12, 16 and 24 hours after dosing. Concentrations of fispemifene were determined using LC-MS/MS.

As for `OCCOCCOc1ccc(/C(=C(/CCCl)c2ccccc2)c2ccccc2)cc1` [Fispemifene, (Z)-2-{2-[4-(4-chloro-1,2-diphenylbut-1-enyl)phenoxy]ethoxy}ethanol], the solubility in water result in “Solubility in water” is on record as “only sparingly soluble”. In addition, in data set [1] (CMC or corn oil vehicle, samples 1-24 h), the “fispemifene quantifiable in serum samples after drug administration” value is on record as “quantifiable in all serum samples”. Further, the “serum fispemifene concentration, corn oil vehicle relative to 0.5% CMC in aqueous solution” value in data set [1] (corn oil vs 0.5% carboxymethyl cellulose in water, 0-24 h) is listed as “more than 10 fold”.
